Structures can show the parent of a compound that is named as a salt. Marks after values point to notes of the source that are not given here.
Experiments:
[1] = system: toxic extensor seizure; test: Mouse maximal electroshock test (MES), anticonvulsant model; type: in vivo; conditions: for MES Response, number of mice protected/number of mice tested: oral, 300 mpk
Experimental: Procedure for Testing in Mouse Anticonvulsant Model
The activity of the present compounds as anticonvulsant agents was determined using a standard mouse “maximal electroshock test” (MES). In this test, activity was indicated by a block of the […] extensor seizure, as described by Swinyard, et al. (J. Pharmacol. Exptl. Therap., 1952, 106, 319). A more recent description of current anticonvulsant drug screening is given in Swinyard, et al., in Epilepsia, 1978, 19, 409.
The anticonvulsant activity of the instant compounds is shown in Table 5 and was evaluated according to the Swinyard (1952) method. The abbreviations used in the table have the following meanings: mpk refers to the dose orally administered in “mg per Kg;” and, ED50 refers to the “50% Effective Dose” orally administered in mpk. The values marked by an * represent the number of mice protected/number of mice tested; therefore, a value of 3/3 represents that the number of mice protected matched the number of mice tested at the indicated dose.

[2] = system: mechanical allodynia; test: Chung Model (spinal nerve ligation), mechanical allodynia with von Frey hairs; type: in vivo; set-up: key to Chung Model result in words (IA): IA: inactive at the screening dose; conditions: rat; for ED50 in the Chung Model: orally administered; for Chung Model result in words (IA) / % MPE (Maximum Possible Effect) in the Chung Model: oral, screening dose (not given)
Excerpt: Procedure for Testing Antiallodynic Effect
The procedure used to detect the antiallodynic effect of a compound of the present invention for which there is a good correlation with human efficacy for the treatment of pain is the procedure for the measurement of allodynia found in the Chung Model (Kim S. H. and Chung J. M., An Experimental Model for Peripheral Neuropathy Produced by Segmental Spinal Nerve Ligation in the Rat, Pain, 1992, 50, 355-363). The antiallodynic effect of the composition of the present invention in the Chung Model is expressed in % MPE (Maximum Possible Effect).
Male Sprague-Dawley rats, weighing approximately 200 g each were anesthetized with isoflurane. The spinal nerve at the level of L5 was exposed through an incision just left of the dorsal midline and tightly ligated with 6-0 silk. At various times after surgery, animals were tested for mechanical allodynia with von Frey hairs (monofilaments which are calibrated to bend under a certain amount of pressure, ranging from 0.41 to 15.1 g). In order to calculate a paw withdrawal threshold (PWT), tactile allodynia was measured by recording the pressure at which the affected paw was withdrawn from graded stimuli according to the procedure of S. R. Chaplan, J. W. Pogrel, T. L. Yaksh, Role of Voltage-Dependent Calcium Channel Subtypes in Experimental Tactile Allodynia, J. Pharmacol. Exp. Ther., 1994, 269, 1117-1123. Normal rats can withstand at least 15 g of pressure without responding. Operated rats, however, can respond to as little as 0.25 g of pressure. The surgery was deemed successful if the animal responded with a PWT of less than 4 g of pressure applied to the affected paw. […] The PWT was used to calculate the % maximal possible effect (% MPE) according to the formula:
% MPE=100×[(PWT−CT)/(CO−CT)];
wherein PWT is defined as Paw Withdrawal Threshold, CT is Control Threshold, and CO is Cut Off (defined as 15 g).
The sham operation consisted of a similar surgery; the spinal nerve was visualized without being ligated.
Compounds selected from Formula (I) and Formula (II) were tested for activity in treating or modulating neuropathic pain by being dissolved or suspended in either water or hydroxypropyl methylcellulose, respectively. […] were fasted overnight prior to dosing. Animals were orally dosed and dosage volumes were calculated on a 4 mL/kg basis.

[3] = system: voltage-gated sodium channels; test: [14C]guanidinium flux assay, veratridine-stimulated SK-N-SH cells; type: cell-based; conditions: 100 μM compound, 100 μM veratridine
Experimental: Screening Assay for Voltage-Gated Sodium Channel Antagonists
[^14C] Guanidinium Flux Assay
SK-N-SH neuroblastoma cells were maintained in a propagation medium containing modified Eagle's medium and 10% (v/v) fetal bovine serum and were incubated at 37° C. in a 5% CO2 atmosphere. Only cells with fewer than 20 passages were used in each assay. All drugs were prepared in DMSO, and the final concentration of solvent was less than 0.1% (v/v). Veratridine, a toxin that selectively promotes persistent activation of voltage-gated sodium channels, served as the stimulus.
SK-N—SH cells were plated at 1×10^5 cells/well in 96-well Cytostar-T microscintillating plates in propagation medium and experiments were performed 6-7 days after plating. Prior to assay, the SK-N-SH cells were washed twice with assay buffer containing 50 mM HEPES (pH 7.45), 5.4 mM potassium chloride, 0.8 mM magnesium chloride, 130 mM choline chloride, 5.5 mM glucose and 0.1 mg/mL bovine serum albumin. Next, the plates were allowed to equilibrate for 10 min at 37° C. in assay buffer. […] The 96-well dosing plate was prepared by mixing 25 μL of a drug/assay buffer solution per well with 25 μL of 0.7 μCi/mL [^14C]guanidine hydrochloride in assay buffer. […] The plates were incubated for 1 hr at room temperature and the radioactivity was counted in a 1450 Microbeta scintillation counter. […]

SMILES	melting point	other results
Cc1c(C(O)c2ccncc2)c(C)n(C)c1C(=O)c1ccc(Cl)cc1 (stereo not drawn) (as salt: hydrochloride) [Cpd 18, (4-Chlorophenyl)-[4-(hydroxypyridin-4-yl-methyl)-1,3,5-trimethyl-1H-pyrrol-2-yl]methanone]	174 to 176 °C	
Cn1cc(C(=O)c2ccncc2)cc1C(=O)c1ccccc1 [Cpd 2, (5-Benzoyl-1-methyl-1H-pyrrol-3-yl) pyridin-4-ylmethanone]	127 to 129 °C	
Cl.Cn1cc(C(=O)c2cccnc2)cc1C(=O)c1ccc(Cl)cc1.Cn1cc(C(=O)c2cccnc2)cc1C(=O)c1ccc(Cl)cc1.O [Cpd 5, [5-(4-Chlorobenzoyl)-1-methyl-1H-pyrrol-3-yl]pyridin-3-ylmethanone Hydrochoride Hydrate [2:1:1]]		% MPE (Maximum Possible Effect) in the Chung Model [2]: 9%
Cn1cc(C(=O)c2ccc3ccccc3c2)cc1C(=O)c1cccnc1 [Cpd 8, [1-Methyl-5-(pyridine-3-carbonyl)-1H-pyrrol-3-yl]naphthalen-2-yl-methanone]	132 to 133 °C	MES Response, number of mice protected/number of mice tested [1]: 0/1* @ 300 mpk
Cn1cc(C(=O)c2ccc(Cl)cc2)cc1C(=O)c1ccc(Cl)nc1 [Cpd 9, (4-Chlorophenyl)-[5-(6-chloropyridine-3-carbonyl)-1-methyl-1H-pyrrol-3-yl]methanone]	150 to 152 °C	
Cn1cc(C(=O)c2ccc(F)cc2)cc1C(=O)c1ccncc1 [Cpd 11, (4-Fluorophenyl)-[1-methyl-5-(pyridine-4-carbonyl)-1H-pyrrol-3-yl]methanone]	155 to 157 °C	MES Response, number of mice protected/number of mice tested [1]: 0/1* @ 300 mpk
Cn1cc(C(O)c2ccncc2)cc1C(=O)c1ccc(Cl)cc1 (stereo not drawn) [Cpd 12, (4-Chlorophenyl)-[4-(hydroxypyridin-4-yl-methyl)-1-methyl-1H-pyrrol-2-yl]-methanone]	145 to 146 °C	% GFI (% guanidinium flux inhibition) @ 100 μM [3]: 4 @ 100%
Cn1cc(C(=O)c2cc[n+]([O-])cc2)cc1C(=O)c1ccc(Cl)cc1 [Cpd 15, (4-Chlorophenyl)-[1-methyl-4-(1-oxypyridine-4-carbonyl)-1H-pyrrol-2-yl]methanone]		% MPE (Maximum Possible Effect) in the Chung Model [2]: 7.9%
Cc1c(C(=O)c2ccc(F)cc2)c(C)n(C)c1C(=O)c1cccnc1 [Cpd 17, (4-Fluorophenyl)-[1,2,4-trimethyl-5-(pyridine-3-carbonyl)-1H-pyrrol-3-yl]methanone]	85 to 88 °C	

More lines, main results first:

melting point	SMILES	other results
174 to 175 °C	Cn1cc(C(=O)c2ccncc2)cc1C(=O)c1ccc(Cl)cc1 [Cpd 1, [5-(4-Chlorobenzoyl)-1-methyl-1H-pyrrol-3-yl]pyridin-4-ylmethanone]	MES Response ED50 ([1]; orally administered): ED50 = 156.97 mpk; ED50 in the Chung Model [2]: ED50 = 22 mpk
134 to 136 °C	Cc1ccc(C(=O)c2cc(C(=O)c3ccncc3)cn2C)cc1.Cl [Cpd 3, [1-Methyl-5-(4-methyl benzoyl)-1H-pyrrol-3-yl]pyridin-4-ylmethanone Hydrochloride]	
243 to 245 °C	Cl.Cn1cc(C(=O)c2ccncc2)cc1C(=O)c1cccs1 [Cpd 4, [1-Methyl-5-(thiophene-2-carbonyl)-1H-pyrrol-3-yl]pyridin-4-ylmethanone Hydrochloride]	MES Response, number of mice protected/number of mice tested [1]: 0/1* @ 300 mpk; Chung Model result in words (IA) [2]: IA
138 to 139 °C	Cn1cc(C(=O)c2ccccn2)cc1C(=O)c1ccc(Cl)cc1 [Cpd 6, [5-(4-Chlorobenzoyl)-1-methyl-1H-pyrrol-3-yl]pyridin-2-yl-methanone]	
220 to 223 °C	Cl.Cn1cc(C(=O)c2ccc(F)cc2)cc1C(=O)c1cccnc1 [Cpd 7, (4-Fluorophenyl)-[1-methyl-5-(pyridine-3-carbonyl)-1H-pyrrol-3-yl]methanone Hydrochloride]	ED50 in the Chung Model [2]: ED50 = 22 mpk
159 to 161 °C	Cn1cc(C(=O)c2ccc(F)cc2)cc1C(=O)c1ccccn1 [Cpd 10, (4-Fluorophenyl)-[1-methyl-5-(pyridine-2-carbonyl)-1H-pyrrol-3-yl]methanone]	MES Response, number of mice protected/number of mice tested [1]: 0/1* @ 300 mpk
198 to 200 °C	Cn1cc(C(=O)c2cnc[nH]2)cc1C(=O)c1ccc(Cl)cc1 [Cpd 13, (4-Chlorophenyl)-[4-(3H-imidazole-4-carbonyl)-1-methyl-1H-pyrrol-2-yl]methanone]	Chung Model result in words (IA) [2]: IA
182 to 184 °C	Cn1cc(C(=O)c2ccnc(Cl)c2)cc1C(=O)c1ccc(Cl)cc1 [Cpd 19, (4-Chlorophenyl)-[4-(2-chloropyridine-4-carbonyl)-1-methyl-1H-pyrrol-2-yl]methanone]	

Source: patent US20040058980A1, “Useful aroyl pyrrole heteroaryl methanones and methanols” (priority 2001, published 2004)
